Measurements: patent US8735140B2, “Preservation and composition of bioprocess algae for production of lipids, seedstock, and feed” (Kuehnle AgroSystems, Inc., priority 2008, dated 2014)

Columns and labels:
Assay type in all cases: cell-based
algal cells = test: Trehalose preservation, evaporative drying and rehydration
Protocol: In the experimental set, trehalose supplied from two different manufacturers (Sigma Aldrich Co.; Hayashibara Co.) is used at 0.5 M, 1.0 M, and 2.0 M each, in each of three different media (dH2O, 1M NaCl, 2.75 M NaCl algae media). In the control set, dH2O, 1 M NaCl medium, and 2.75 M NaCl medium are prepared, all lacking trehalose. The starting density of cells used for preliminary experiments is 4.59×10^5 cells/mL. The cells are spun down and re-suspended in trehalose solutions, and further equilibrate overnight at 28° C. Cells are then re-suspended in 10 mL of its corresponding medium and transferred to 25 mL canted neck tissue culture flasks (Falcon Co.). The cultures are allowed to settle and proliferate without shaking under low light (11 μE/m2/sec) for nine days. Cells are counted again to determine whether cells would multiply in each respective medium without intervening sub-culture. […] After a week of drying, all the cells are re-hydrated in 5 mL of 1M NaCl growth medium in the morning and viable cells are counted the same afternoon. […] Viability is determined by growth curves over time, by the percentage of motile cells or by the green appearance as indicative of photosynthetic activity. […]

Chlorella (KAS603) = test: Trehalose preservation, storage by air drying on paper disk; conditions: for % Viability: 0M control = 100%; for Growth: final/initial density
Protocol: (§1) Flask cultures (40 ml) of cells are grown to mid-log phase with a density between 3×10^6 and 3×10^7 cells/ml, and are centrifuged. Culture medium is removed after centrifugation, resulting in more concentrated algae cells. Cells are then re-suspended in fresh medium and left overnight. Cells are centrifuged again the next day in order to remove the medium, and are then re-suspended in fresh or salt water without any nutrient. The cell density of the suspension is determined prior to storage under the various treatments. Cells in 40 ml flask cultures are grown to mid-log phase with a density of between 3×10^6 and 3×10^7 cells/ml, and are centrifuged. Culture medium is removed after centrifugation, resulting in more concentrated algae cells. Cells are then re-suspended in ideal glass solution consisting of fresh culture medium and trehalose at a concentration of 0.1M, 0.3M, and 0.5M (dihydrate trehalose 100 from Hayashibara Co. Ltd, Okayama, Japan), respectively, and left overnight with mild agitation. Cells are centrifuged again to remove the ideal glass solution the next day, and are re-suspended in fresh or salt water without any nutrient. The cell density of the resulting suspension is determined prior to storage under the various treatments. (Some cells were also treated with a 0.5M sorbitol solution). In one specific embodiment, algae cells can be stored under air-dry conditions using autoclaved sterilized filter paper disks (15 mm Whatman Grade 1, Fisher Scientific 09-805-1B). Specifically, after one piece of paper disk is placed into each well of BD Falcon 12-well tissue culture plates, 0.1 ml algae cell suspension is placed onto each disk. The liquid cell suspension is allowed to air dry in a laminar flow hood for 1 hour. After 1 hour, the plates are closed and placed under low light at ambient temperature. Algae stored under the above preservation conditions for 5 months can be subsequently rejuvenated by removing the paper disks from the 12-well plates and placing cells in 5 ml of fresh medium under light. Cell viability is determined by comparing the cell growth in control set with the experimental set. Specifically, cell counts are performed on all samples. The averaged density value (in cells per ml) for all the cultures after treatment is defined as “rejuvenation cell count.” In some samples, the percent recovery of cells immediately after storage is also determined. The formulae are illustrated as follows: Growth=(rejuvenation cell count)/(initial cell count) Cell recovery after storage=(cell density after storage)/(initial cell density), with controls set at 100% cell recovery. Viability after storage and rejuvenation in nutrient medium=(Growth of treatment)/(Growth of control)×100%, with controls set at 100% viability

Tetraselmis (KAS633) = test: as above; conditions: for % Viability: 0M control = 100%; for Growth: final/initial density
Protocol: as §1

[1] = 0.1M trehalose in F/2, 20 weeks storage in water (no nutrients)
[2] = 0.1M trehalose in F/2, 20 weeks storage
[3] = 0.3M trehalose in F/2, 20 weeks storage in water (no nutrients)
[4] = 0.3M trehalose in F/2, 20 weeks storage
[5] = 0.5M trehalose in F/2, 20 weeks storage in water (no nutrients)
[6] = 0.5M trehalose in F/2, 20 weeks storage

OC[C@H]1O[C@H](O[C@H]2O[C@H](CO)[C@@H](O)[C@H](O)[C@H]2O)[C@H](O)[C@@H](O)[C@@H]1O [trehalose, α-D-glycosyl-α-D-glycosylpyranoside]
Cell appearance of preserved samples versus controls (algal cells; after rehydration, light microscope): No significant differences in cell appearance | Cell viability after a week of drying and re-hydration (algal cells; in 1M NaCl growth medium, compared with Sigma trehalose and other media): best preserved | Cell colors on paper/in medium (Chlorella (KAS603); [1]): Green/green | Final density after storage and 3 weeks rejuvenation (Chlorella (KAS603); [1]): 2.278 × 10^7 cells/ml | % Viability (Chlorella (KAS603); [2]): (133%) | Growth (Chlorella (KAS603); [2]): 1.433 | Final density after storage and 3 weeks rejuvenation (Chlorella (KAS603); [3]): 4.440 × 10^7 cells/ml | % Viability (Chlorella (KAS603); [4]): (144%) | Growth (Chlorella (KAS603); [4]): 1.55 | Final density after storage and 3 weeks rejuvenation (Chlorella (KAS603); [5]): 3.140 × 10^7 cells/ml | % Viability (Chlorella (KAS603); [6]): (133)% | Growth (Chlorella (KAS603); [6]): 1.43 | Cell colors on paper/in medium (Tetraselmis (KAS633); [1]): Green/green | Final density after storage and 3 weeks rejuvenation (Tetraselmis (KAS633); [1]): 8.60 × 10^6 cells/ml | % Viability (Tetraselmis (KAS633); [2]): (80%) | Growth (Tetraselmis (KAS633); [2]): 5.51 | Final density after storage and 3 weeks rejuvenation (Tetraselmis (KAS633); [3]): 2.15 × 10^6 cells/ml | % Viability (Tetraselmis (KAS633); [4]): (19%) | Growth (Tetraselmis (KAS633); [4]): 1.32 | Cell colors on paper/in medium (Tetraselmis (KAS633); [5]): White/clear | Final density after storage and 3 weeks rejuvenation (Tetraselmis (KAS633); [5]): 1.915 × 10^6 cells/ml | % Viability (Tetraselmis (KAS633); [6]): (16%) | Growth (Tetraselmis (KAS633); [6]): 1.10
